According to US12649723B2, “Carbonohydrazonoyl dicyanide compounds comprising 2 or more aryl or heteroaryl connected via linker and use thereof” (KOREA INSTITUTE OF SCIENCE AND TECHNOLOGY, priority 2020, dated 2026):

Tests used:
tau protein = target: T1, tau protein (Homo sapiens, UniProt P10636); experiment: Tau-BiFC cell model: inhibition of tau protein aggregation; type: cell-based; conditions: for remaining activity at 10 µM: 48 h, compound 10 μM, BiFC fluorescence, Forskolin-only group = 100% tau protein-aggregated state, read-out: Response (% @10 μM); for IC50: Tau BiFC in cells, with Forskolin 30 μM, 48 hours
T1 construct: fused on or other part: Split fluorescent-protein halves for BiFC are fused to tau; In the published tau-BiFC line these are Venus VN173 and VC155
Protocol: (§1) In order to select novel tau protein aggregation-inhibiting substances, tau-BiFC cell model, in which formation of tau oligomers in living cells is easily observed, was used. Tau-BiFC cells were aliquoted into a 384-well plate. On the next day, the cells were treated with each of the compounds prepared according to Examples 1 to 175 at concentrations of 1 μM, 3 μM, and 10 μM, together with Forskolin (at a treatment concentration of 30 μM), which is a compound inducing tau protein aggregation by activating tau […] PKA. After 48 hours, nuclei in the cells were stained using Hoechst (at a treatment concentration of 2 μg/mL), and BiFC fluorescence intensity was automatically measured using Operetta (PerkinElmer) to count stained nuclei in each well out of the entire well plate. The group treated only with Forskolin, which induces tau protein aggregation, was set to a reference point of a 100% tau protein-aggregated state, and the effects of the compounds were confirmed using the equation “BiFC fluorescence intensity due to compound synthesized according to embodiment of present invention/(fluorescence intensity of control group treated only with Forskolin inducing tau protein aggregation−fluorescence intensity of untreated control group)×100”. Furthermore, the degree of cytotoxicity induced by the newly synthesized compound was also measured based on the 100% cell viability of the group treated only with Forskolin as a reference, and the cytotoxicity value of each compound was calculated using the equation “(number of stained nuclei in group treated with compound/number of stained nuclei in group treated with Forskolin)×100”. Based on the treatment results, substances inhibiting intracellular tau protein aggregation were selected from a series of candidate groups showing a tau protein aggregation inhibition rate of 70% or more and cell viability of 100% at a compound treatment concentration of 10 μM or more.
(§2) In order to evaluate dose-dependent tau protein aggregation inhibition effects of the compounds selected according to Experimental Example 1 on tau protein aggregation, tau-BiFC cells were treated with the selected compounds at concentrations of 0.03 μM, […], 0.3 μM, 1 μM, 3 μM, 10 μM, and 30 μM, respectively, together with Forskolin (at a treatment concentration of 30 μM), which is a tau protein aggregation inducing substance. After 48 hours, tau protein aggregation reaction and degrees of cytotoxicity were analyzed by observing images of the cells. IC50 and toxicity of the compounds were analyzed by way of nonlinear regression analysis of prism software (Graph Pad).

Tau-BiFC cells = experiment: Cell viability (cytotoxicity) in tau-BiFC cells, count of stained nuclei; type: cell-based; conditions: compound 10 μM; Forskolin-only group = 100% cell viability
Protocol: as §1, §2

T1 sequence (P10636 2-441 isoform P10636-8 limits assumed): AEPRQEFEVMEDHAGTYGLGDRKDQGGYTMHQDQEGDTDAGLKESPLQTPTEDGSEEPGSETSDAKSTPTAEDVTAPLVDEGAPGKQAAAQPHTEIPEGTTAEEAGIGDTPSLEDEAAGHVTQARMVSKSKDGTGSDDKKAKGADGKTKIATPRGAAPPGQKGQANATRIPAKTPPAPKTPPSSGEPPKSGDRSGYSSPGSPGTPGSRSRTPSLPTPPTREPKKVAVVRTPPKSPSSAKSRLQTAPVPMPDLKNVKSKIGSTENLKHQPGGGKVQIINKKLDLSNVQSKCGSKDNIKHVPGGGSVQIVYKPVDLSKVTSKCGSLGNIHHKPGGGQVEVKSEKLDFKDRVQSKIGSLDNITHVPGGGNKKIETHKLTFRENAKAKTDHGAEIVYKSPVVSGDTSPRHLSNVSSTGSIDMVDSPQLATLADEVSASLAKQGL

SMILES	remaining activity at 10 µM (tau protein)	IC50 (tau protein)	Cell viability (% @10 μM) (Tau-BiFC cells)
Cc1cc(NN=C(C#N)C#N)ccc1Oc1cncnc1 [Compound 81, (3-methyl-4-(pyrimidin-5-yloxy)phenyl)carbonohydrazonoyl dicyanide]	0%	550 nM	116.2%
N#CC(C#N)=NNc1ccc(Oc2cncnc2)c(F)c1 [Compound 82, (3-fluoro-4-(pyrimidin-5-yloxy)phenyl)carbonohydrazonoyl dicyanide]	0%	2960 nM	126.4%
N#CC(C#N)=NNc1ccc(Oc2ccccn2)cc1 [Compound 83, (4-(pyridin-2-yloxy)phenyl)carbonohydrazonoyl dicyanide]	0%	1140 nM	104%
N#CC(C#N)=NNc1ccc(Oc2cnccn2)cc1 [Compound 84, (4-(pyrazin-2-yloxy)phenyl)carbonohydrazonoyl dicyanide]	0%	2120 nM	111.4%
N#CC(C#N)=NNc1ccc(Oc2cccnc2)cc1 [Compound 85, (4-(pyridin-3-yloxy)phenyl)carbonohydrazonoyl dicyanide]	0%	1580 nM	99.1%
N#CC(C#N)=NNc1ccc(Oc2ccccc2C#N)cc1 [Compound 86, (4-(2-cyanophenoxy)phenyl)carbonohydrazonoyl dicyanide]	0%	2120 nM	72.6%
N#CC(C#N)=NNc1ccc(Oc2ccc(C#N)cc2)cc1 [Compound 87, (4-(4-cyanophenoxy)phenyl)carbonohydrazonoyl dicyanide]	0%	1220 nM	39.4%
N#CC(C#N)=NNc1ccc(Oc2cccc(C#N)c2)cc1 [Compound 88, (4-(3-cyanophenoxy)phenyl)carbonohydrazonoyl dicyanide]	0%	3060 nM	44.4%
N#CC(C#N)=NNc1ccc(Oc2ccc(C(F)(F)F)nc2)cc1 [Compound 89, (4-(6-(trifluoromethyl)pyridin-3-yloxy)phenyl)carbonohydrazonoyl dicyanide]	0%	2400 nM	32.5%
N#CC(C#N)=NNc1ccc(Oc2ccc(C(F)(F)F)cn2)cc1 [Compound 90, (4-(5-(trifluoromethyl)pyridin-2-yloxy)phenyl)carbonohydrazonoyl dicyanide]	0%	1290 nM	43.7%
N#CC(C#N)=NNc1ccc(Oc2ncccn2)cc1 [Compound 91, (4-(pyrimidin-2-yloxy)phenyl)carbonohydrazonoyl dicyanide]	0%	3120 nM	117%
N#CC(C#N)=NNc1ccc(Oc2cccnn2)cc1 [Compound 92, (4-(pyridazin-3-yloxy)phenyl)carbonohydrazonoyl dicyanide]	0%	550 nM	116.8%
N#CC(C#N)=NNc1ccc(Oc2ccccc2F)cc1 [Compound 93, (4-(2-fluorophenoxy)phenyl)carbonohydrazonoyl dicyanide]	0%	1290 nM	66.5%
N#CC(C#N)=NNc1ccc(Oc2cccc(F)c2)cc1 [Compound 94, (4-(3-fluorophenoxy)phenyl)carbonohydrazonoyl dicyanide]	0%	1280 nM	33.6%
N#CC(C#N)=NNc1ccc(OCc2ccccc2)nc1 [Compound 95, (6-(benzyloxy)pyridin-3-yl)carbonohydrazonoyl dicyanide]	0%	–	71.9%
N#CC(C#N)=NNc1ccc(OCc2ccc(C(F)(F)F)cc2)nc1 [Compound 96, (6-(4-(trifluoromethyl)benzyloxy)pyridin-3-yl)carbonohydrazonoyl dicyanide]	0%	400 nM	27.5%
N#CC(C#N)=NNc1ccc(OCc2ccccc2)c(C(F)(F)F)c1 [Compound 97, (4-(benzyloxy)-3-(trifluoromethyl)phenyl)carbonohydrazonoyl dicyanide]	0%	100 nM	27.1%
N#CC(C#N)=NNc1ccc(OCc2ccc(C(F)(F)F)cc2)c(C(F)(F)F)c1 [Compound 98, (3-(trifluoromethyl)-4-(4-(trifluoromethyl)benzyloxy)phenyl)carbonohydrazonoyl dicyanide]	0%	250 nM	26.9%
Cc1ccc(COc2ccc(NN=C(C#N)C#N)cn2)cc1 [Compound 99, (6-(4-methylbenzyloxy)pyridin-3-yl)carbonohydrazonoyl dicyanide]	0%	240 nM	29.2%
N#CC(C#N)=NNc1ccc(OCCc2ccccc2)nc1 [Compound 100, (6-phenethoxypyridin-3-yl)carbonohydrazonoyl dicyanide]	0%	780 nM	39.4%
N#CC(C#N)=NNc1ccc(OCCc2ccccc2)c(C(F)(F)F)c1 [Compound 101, (4-phenethoxy-3-(trifluoromethyl)phenyl)carbonohydrazonoyl dicyanide]	0%	950 nM	30.1%
COc1ccc(CCOc2ccc(NN=C(C#N)C#N)cn2)cc1 [Compound 102, (6-(4-methoxyphenethoxy)pyridin-3-yl)carbonohydrazonoyl dicyanide]	0%	960 nM	54.5%
N#CC(C#N)=NNc1ccc(OCCc2ccc(C(F)(F)F)cc2)nc1 [Compound 103, (6-(4-(trifluoromethyl)phenethoxy)pyridin-3-yl)carbonohydrazonoyl dicyanide]	0%	2350 nM	37.9%
COc1cc(NN=C(C#N)C#N)ccc1C(=O)Nc1cncc(C)n1 [Compound 105, (3-methoxy-4-(6-methylpyrazin-2-ylcarbamoyl)phenyl)carbonohydrazonoyl dicyanide]	0%	400 nM	142.9%
Cc1cnc(NC(=O)c2ccc(NN=C(C#N)C#N)cc2Cl)cn1 [Compound 106, (3-chloro-4-(5-methylpyrazin-2-ylcarbamoyl)phenyl)carbonohydrazonoyl dicyanide]	0%	–	184.9%
COc1cc(NN=C(C#N)C#N)ccc1C(=O)Nc1cncc(C)c1 [Compound 107, (3-methoxy-4-(5-methylpyridin-3-ylcarbamoyl)phenyl)carbonohydrazonoyl dicyanide]	0%	600 nM	137.9%
COc1cc(NN=C(C#N)C#N)ccc1C(=O)Nc1ccc(C)cc1 [Compound 108, (3-methoxy-4-(p-tolylcarbamoyl)phenyl)carbonohydrazonoyl Dicyanide]	0%	1400 nM	121.8%
COc1ccc(NC(=O)c2ccc(NN=C(C#N)C#N)cc2OC)cc1 [Compound 109, (3-methoxy-4-(4-methoxyphenylcarbamoyl)phenyl)carbonohydrazonoyl Dicyanide]	0%	1400 nM	141.8%
Cc1cc(NN=C(C#N)C#N)ccc1NC(=O)c1cscn1 [Compound 111, (3-methyl-4-(thiazole-4-carboxamido)phenyl)carbonohydrazonoyl dicyanide]	0%	500 nM	136.4%
N#CC(C#N)=NNc1ccc(NC(=O)c2cscn2)nc1 [Compound 112, (6-(thiazole-4-carboxamido)pyridin-3-yl)carbonohydrazonoyl dicyanide]	0%	200 nM	158.2%
